The source of these data is US11248006B2, “Macrocyclic derivative of pyrazol[3,4-d]pyrimidin-3-one, pharmaceutical composition and use thereof” (SHANGHAI DE NOVO PHARMATECH CO., LTD., priority 2017, dated 2022).

For assay [1], the system named is Human osteosarcoma cell line MG63. Description: Cell proliferation assay (CCK-8 cell viability). The following applies: CCK-8, 72 hours incubation. It is filed as cell-based. The method, then:
In the present disclosure, cell assays were used to assess the biological activity of the compound. Human osteosarcoma cell line MG63 (ATCC CRL-1427) was cultured in a 96-well plate of Dulbecco's Modified Eagle's medium, supplemented with 10% fetal bovine serum and 1% (v/v) L-glutamine, and the cultivation environment was 37° C. and 5% CO2. Compound concentrations ranged from 4.5 nM to 30 μM. The Wee1 inhibitor stock solution was dissolved in DMSO, added to the medium with an indicated concentration and incubated for 72 hours. Negative control cells were only treated with vehicle. In some assays, a known Wee1 inhibitor was added as a positive control. Cell viability was measured using a Cell Counting Kit-8 (CCK-8, Sigma-Aldrich) under the instruction of the product specification. The data was analyzed using Graphpad software to obtain a fitted curve of IC50 values against the compounds.

Assay [2] has as its target T1, Wee1 (Homo sapiens (Human), UniProt P30291). The experiment in a line: Wee1 enzyme catalysis assay (ATP-Glo Max kinase luminescence detection kit). It is filed as biochemical. The following applies: Wee1 enzymatic activity, 10 μM ATP, Poly (Lys, Tyr) substrate, 30° C. for 50 minutes. The method, then: In the present disclosure, Wee1 enzyme catalysis assay was carried out using the ATP-Glo Max kinase luminescence detection kit (Promega). Kinase activity was assessed by quantitative detection of the amount of ATP retained in the solution following the kinase reaction. The luminescent signal in the assay is proportional to the amount of ATP and inversely proportional to the kinase activity. The concentration of the compound in the assay ranged from 0.5 nM to 30 μM. The compound was dissolved in 10% DMSO, and 5 μL of the solution was added to 50 μL of the reaction, and the concentration of DMSO in the final reaction was 1%. The reaction was carried out at 30° C. for 50 minutes. 40 mM trishydroxymetyl aminomethane, pH 7.4, 10 mM MgCl2, 0.1 mg/ml BSA, 2 mM DTT, 0.1 mg/ml Poly (Lys, Tyr) substrate, 10 μM ATP and Wee1 were contained in the reaction mixture. After the enzymatic reaction, 50 μL of ATP-Glo Max kinase luminescence detection assay solution (Promega) was added and incubated for 15 minutes at room temperature. The luminescent signal was measured using a microplate reader. In some assays, a known Wee1 inhibitor was added as a positive control. Luminance data was analyzed using Graphpad software. The difference between the luminescence intensity in the absence of Wee1 and the luminescence intensity in the presence of Wee1 was defined as 100% activity (Lut−Luc). Using the luminescence intensity signal (Lu) in the presence of the compound, the % activity was calculated as follows: % Activity={(Lut−Lu)/(Lut−Luc)}×100%, wherein, Lu=luminous intensity of the compound Non-linear regression analysis was employed to plot the dose-effect curve of % activity value and the corresponding concentrations for the series of compounds. The equation is Y=B+(TB)/1+10((Log EC50−X)×Hill Slope), Y=% activity, B=minimum activity percentage, T=maximum activity percentage, X=logarithm of compound and Hill slope=slope factor or Hill coefficient. The IC50 value was determined by the concentration of a compound that is required to obtain 50% of the maximum effect.

Assay [3] addresses T1, Wee1. Description: Cell activity of Wee1 by p-CDK1Y15 ELISA assay in WiDr cells. It is filed as cell-based. The following applies: amount of p-CDK1Y15, human colon adenocarcinoma cell line WiDr, 24 hours incubation. Here is the method:
In the present disclosure, cellular assays were used to assess the biological activity of the compound. This assay was conducted using the human colon adenocarcinoma cell line WiDr. The activity of a specific Wee1 inhibitor was evaluated using p-CDK1Y15 ELISA assay method. The detailed assay method is described as follows:
WiDr cells were cultured in Dulbecco's Modified Eagle's medium containing 10% FBS at 37° C. and 5% CO2. Compound concentrations ranged from 0.5 nM to 30 μM. The compound was diluted, added to a 24-well plate and incubated with the cells for 24 hours. DMSO was used as a negative control. A known Wee1 inhibitor was added as a positive control in some assays. According to the instruction of the manufacturer, in the p-CDK1Y15 assay, cells were lysed and tested by a colorimetric ELISA kit to determine the amount of p-CDK1Y15. The optical density was measured using a spectrophotometer. The OD data was analyzed using Graphpad software to obtain a fitted curve of IC50 values against the compounds.

T1 sequence (P30291 whole entry): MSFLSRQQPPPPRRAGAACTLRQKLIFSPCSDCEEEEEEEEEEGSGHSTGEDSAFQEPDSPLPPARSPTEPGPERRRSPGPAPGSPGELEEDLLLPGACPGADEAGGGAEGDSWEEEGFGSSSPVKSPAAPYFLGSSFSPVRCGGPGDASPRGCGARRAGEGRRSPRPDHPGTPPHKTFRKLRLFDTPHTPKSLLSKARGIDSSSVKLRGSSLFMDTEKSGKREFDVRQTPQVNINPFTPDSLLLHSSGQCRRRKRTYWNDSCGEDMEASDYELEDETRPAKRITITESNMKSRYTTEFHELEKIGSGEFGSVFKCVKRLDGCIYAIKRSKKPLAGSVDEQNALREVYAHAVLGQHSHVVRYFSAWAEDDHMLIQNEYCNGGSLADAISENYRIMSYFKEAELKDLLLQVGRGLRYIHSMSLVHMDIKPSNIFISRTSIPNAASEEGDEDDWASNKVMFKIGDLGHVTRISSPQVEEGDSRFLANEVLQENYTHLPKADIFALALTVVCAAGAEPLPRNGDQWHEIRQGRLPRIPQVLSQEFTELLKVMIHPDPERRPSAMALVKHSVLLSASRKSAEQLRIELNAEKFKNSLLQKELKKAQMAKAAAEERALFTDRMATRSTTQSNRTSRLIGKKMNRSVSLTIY

For `CN1Cc2cc(Nc3ncc4c(=O)n5n(c4n3)-c3cccc(n3)OCC/C=C\C5)ccc2C2(CC2)C1` [Compound 1-2-1], the IC50 in assay [1] (Homo sapiens, MG-63, 72 h) is 593 nM; against Wee1 [2] it was 5.4 nM.

As to `CC(=O)N1CCC/C=C\Cn2c(=O)c3cnc(Nc4ccc5c(c4)CN(C)CC54CC4)nc3n2-c2cccc1n2` [Compound 2-2-1], the IC50 in assay [1] (Homo sapiens, MG-63, 72 h) worked out at 439 nM; against Wee1 [2], 3.7 nM.

In the case of `C=CCCCCN1C(=O)COc2ccc(-n3c4nc(SC)ncc4c(=O)n3CC=C)nc21` [Compound 3-1-1], the IC50 was found to be 336 nM on Wee1 [3], 1150 nM in assay [1] and 4.9 nM at Wee1 [2].

Regarding `CN1Cc2cc(Nc3ncc4c(=O)n5n(c4n3)-c3ccc4c(n3)N(CCC/C=C\C5)C(=O)CO4)ccc2C2(CC2)C1` [Compound 3-2-2], the results for the IC50 (against Wee1 [3]; in assay [1]; at Wee1 [2]) were 139 nM, 261 nM and 11 nM, respectively.

`CN1Cc2cc(Nc3ncc4c(=O)n5n(c4n3)-c3ccc4c(n3)N(CC/C=C\C5)C(=O)CO4)ccc2C2(CC2)C1` [Compound 3-2-3]: the IC50 against Wee1 [3] is 326 nM; against Wee1 [2], 7.6 nM.

For `CN1CCN(c2ccc(Nc3ncc4c(=O)n5n(c4n3)-c3ccc4c(n3)N(CCC/C=C\C5)C(=O)CO4)cc2CO)CC1` [Compound 3-3-1], the IC50 worked out at 295 nM in assay [1] and 5.5 nM against Wee1 [2].

`COc1cc(Nc2ncc3c(=O)n4n(c3n2)-c2ccc3c(n2)N(CCC/C=C\C4)C(=O)CO3)ccc1N1CCN(C)CC1` [Compound 3-3-2]: the IC50 worked out at 114 nM against Wee1 [3]; 567 nM in assay [1] (Homo sapiens, MG-63, 72 h); 3.3 nM against Wee1 [2].

`CN1CCN(c2ccc(Nc3ncc4c(=O)n5n(c4n3)-c3ccc4c(n3)N(CCC/C=C\C5)C(=O)CO4)cc2)CC1` [Compound 3-3-7]: the IC50 on Wee1 [3] amounted to 250 nM; in assay [1] (Homo sapiens, MG-63, 72 h), 571 nM; against Wee1 [2], 13 nM.

For `COc1cc(Nc2ncc3c(=O)n4n(c3n2)-c2ccc3c(n2)N(CCC/C=C\C4)C(=O)CO3)cc(N2CCN(C)CC2)c1` [Compound 3-3-13], the IC50 was found to be 68.8 nM against Wee1 [3] and 82 nM in assay [1] (Homo sapiens, MG-63, 72 h).

As to `CN1Cc2cc(Nc3ncc4c(=O)n5n(c4n3)-c3ccc4c(n3)N(CCC/C=C\C5)C(=O)CO4)ccc2C(C)(C)C1` [Compound 3-5-1], the IC50 came to 232 nM in assay [1] (Homo sapiens, MG-63, 72 h) and 2.4 nM at Wee1 [2].

Consider `CC(C)(C)OC(=O)N1Cc2cc(Nc3ncc4c(=O)n5n(c4n3)-c3ccc4c(n3)N(CCC/C=C\C5)C(=O)CO4)ccc2C(C)(C)C1` [Compound 3-5-2], for which the IC50 in assay [1] stood at 327 nM; against Wee1 [2], 6.1 nM.

As to `CC(C)(C)OC(=O)N1CCC(n2ccc3cc(Nc4ncc5c(=O)n6n(c5n4)-c4ccc5c(n4)N(CCC/C=C\C6)C(=O)CO5)ccc32)CC1` [Compound 3-7-3], the values for the IC50 (on Wee1 [3]; in assay [1]; against Wee1 [2]) were 80.6 nM, 222 nM and 9.5 nM, respectively.

Take `CN1CCC(n2ccc3cc(Nc4ncc5c(=O)n6n(c5n4)-c4ccc5c(n4)N(CCC/C=C\C6)C(=O)CO5)ccc32)CC1` [Compound 3-7-5]: the IC50 was found to be 38.8 nM at Wee1 [3]; 60.4 nM in assay [1] (Homo sapiens, MG-63, 72 h); 3.9 nM at Wee1 [2].

In the case of `CN1CCC(n2ccc3cc(Nc4ncc5c(=O)n6n(c5n4)-c4ccc5c(n4)N(CCC/C=C\C6)C(=O)CO5)ccc32)C1` (centres unmarked) [Compound 3-7-6], the IC50 in assay [1] (Homo sapiens, MG-63, 72 h) was 554 nM; at Wee1 [2], 9.6 nM.

On to `CC(C)N1CCC(n2ccc3cc(Nc4ncc5c(=O)n6n(c5n4)-c4ccc5c(n4)N(CCC/C=C\C6)C(=O)CO5)ccc32)CC1` [Compound 3-7-7], for which the IC50 against Wee1 [3] came to 51.4 nM; in assay [1], 44.3 nM; at Wee1 [2] it was 6.6 nM.

Regarding `CN1CCn2c(cc3cc(Nc4ncc5c(=O)n6n(c5n4)-c4ccc5c(n4)N(CCC/C=C\C6)C(=O)CO5)ccc32)C1` [Compound 3-7-8], the IC50 in assay [1] (Homo sapiens, MG-63, 72 h) worked out at 654 nM; against Wee1 [2], 12.3 nM.

With `CS(=O)(=O)CCN1CCC(n2ccc3cc(Nc4ncc5c(=O)n6n(c5n4)-c4ccc5c(n4)N(CCC/C=C\C6)C(=O)CO5)ccc32)CC1` [Compound 3-7-9], the IC50 was determined as 193 nM in assay [1] (Homo sapiens, MG-63, 72 h) and 9.2 nM on Wee1 [2].

Take `O=C1COc2ccc3nc2N1CCC/C=C\Cn1c(=O)c2cnc(Nc4ccc5c(ccn5C5CCN(CCO)CC5)c4)nc2n1-3` [Compound 3-7-10]: the IC50 worked out at 56.4 nM in assay [1] (Homo sapiens, MG-63, 72 h) and 8.5 nM on Wee1 [2].

Regarding `CN1CCC(c2c[nH]c3cc(Nc4ncc5c(=O)n6n(c5n4)-c4ccc5c(n4)N(CCC/C=C\C6)C(=O)CO5)ccc23)CC1` [Compound 3-7-13], the IC50 was 114 nM against Wee1 [3] and 150 nM in assay [1] (Homo sapiens, MG-63, 72 h).

`CC(C)N1CCC(n2ccc3cc(Nc4ncc5c(=O)n6n(c5n4)-c4ccc5c(n4)N(CCC/C=C\C6)C(=O)CO5)ccc32)CC1` [Compound 3-7-15]: the half-maximal inhibitory concentration (IC50) came to 211 nM in assay [1] and 7.9 nM at Wee1 [2].

Consider `CN1CCN(c2cc(Nc3ncc4c(=O)n5n(c4n3)-c3ccc4c(n3)N(CCC/C=C\C5)C(=O)CO4)cc3c2ccn3C)CC1` [Compound 3-7-16], for which the IC50 worked out at 31.4 nM against Wee1 [3] and 99.1 nM in assay [1] (Homo sapiens, MG-63, 72 h).

For `CN1Cc2cc(Nc3ncc4c(=O)n5n(c4n3)-c3ccc4c(n3)N(CCO4)C(=O)CC/C=C\C5)ccc2C2(CC2)C1` [Compound 8-1-2], the half-maximal inhibitory concentration (IC50) was determined as 323 nM in assay [1] (Homo sapiens, MG-63, 72 h) and 4.4 nM against Wee1 [2].

Turning to `C=CCn1c(=O)c2cnc(SC)nc2n1-c1ccc2c(n1)N(CCCC#CCOC1CCCCO1)C(=O)CO2` (centres unmarked) [Compound 10-1-1], the IC50 came out at 490 nM in assay [1] and 9.9 nM on Wee1 [2].
